Laboratory results published in patent US11999726B2, “5-methyl-4-fluoro-thiazol-2-yl compounds” (Eli Lilly and Company, priority 2018, dated 2024).

Biological target: T1, human O-GlcNAc-β-N-acetylglucosaminidase (OGA) (Homo sapiens, UniProt O60502)
T1 construct: poly-histidine (HIS) tag (N); made in house; host or cells: Sf9 insect cells (Bac-to-Bac baculovirus, pFastBac1)
T1 sequence (O60502 1-916): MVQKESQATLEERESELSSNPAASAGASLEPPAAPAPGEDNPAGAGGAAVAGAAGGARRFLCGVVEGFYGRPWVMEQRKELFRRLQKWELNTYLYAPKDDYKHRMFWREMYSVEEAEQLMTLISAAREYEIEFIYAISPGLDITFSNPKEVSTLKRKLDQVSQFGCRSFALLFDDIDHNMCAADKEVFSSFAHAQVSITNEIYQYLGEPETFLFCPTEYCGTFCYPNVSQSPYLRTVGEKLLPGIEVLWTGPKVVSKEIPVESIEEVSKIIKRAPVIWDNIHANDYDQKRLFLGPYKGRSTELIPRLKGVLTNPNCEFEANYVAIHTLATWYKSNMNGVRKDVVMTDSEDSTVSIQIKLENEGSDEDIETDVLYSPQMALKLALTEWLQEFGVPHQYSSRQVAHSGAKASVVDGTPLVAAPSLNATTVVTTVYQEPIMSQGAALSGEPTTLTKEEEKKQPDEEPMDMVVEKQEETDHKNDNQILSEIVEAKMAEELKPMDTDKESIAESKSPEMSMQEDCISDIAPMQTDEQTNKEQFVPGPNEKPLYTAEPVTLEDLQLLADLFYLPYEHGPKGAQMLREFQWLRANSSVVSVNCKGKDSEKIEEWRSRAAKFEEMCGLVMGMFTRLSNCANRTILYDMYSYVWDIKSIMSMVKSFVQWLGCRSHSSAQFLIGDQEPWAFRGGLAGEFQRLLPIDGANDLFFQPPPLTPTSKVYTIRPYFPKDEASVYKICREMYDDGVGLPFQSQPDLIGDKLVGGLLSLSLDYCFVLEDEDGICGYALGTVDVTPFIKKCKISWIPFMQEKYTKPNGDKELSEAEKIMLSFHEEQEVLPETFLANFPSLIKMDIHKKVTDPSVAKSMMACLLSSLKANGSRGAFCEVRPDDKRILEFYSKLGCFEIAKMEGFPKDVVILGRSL
Experiment: In Vitro Human OGA Enzyme Assay
Format: biochemical
Settings: FD-GlcNAc substrate 6.7 μM; 30 min pre-incubation with OGA enzyme; 60 min at room temperature; pH 7; n=3
Procedure: In Vitro Human OGA Enzyme Assay
The nucleotide sequence encoding full-length human O-GlcNAc-β-N-acetylglucosaminidase (NM_012215) is inserted into pFastBac1 (Invitrogen) vector with an N-terminal poly-histidine (HIS) tag. Baculovirus generation is carried out according to the Bac-to-Bac Baculovirus Expression system (Invitrogen) protocol. Sf9 cells are infected at 1.5×10^6 cells/mL using 10 mL of P1 virus per Liter of culture and incubated at 28° C. for 48 hrs. Cells are spun down, rinsed with PBS and the pellets stored at −80° C. […]
Resin is then packed onto column and washed with 50 mM Tris, pH 8.0, 300 mM NaCl, 10% glycerol, 10 mM imidazole, 0.1% Triton™ X-100, 1 mM DTT, followed by 50 mM Tris, pH 8.0, 150 mM NaCl, 10 mM imidazole, 10% glycerol, 1 mM DTT. […] Fractions containing His-OGA are pooled and protein concentration measured with BCA ([…]).
The OGA enzyme catalyses the removal of O-GlcNAc from nucleocytoplasmic proteins. […] This fluorogenic substrate becomes fluorescent upon cleavage by OGA, so that the enzyme activity can be measured by the increase in fluorescence detected at 535 nm (excitation at 485 nm).
The assay buffer is prepared to give a final concentration of 50 mM […], 0.01% bovine serum albumin and 0.01% Triton™ X-100 in water, at pH 7. […] Then, without stopping the reaction, fluorescence is read. […]

IC50: 0.343 nM
Structure (SMILES): CC(=O)Nc1nc(F)c(CN2CC[C@H](Oc3cnc(C#N)cn3)C[C@@H]2C)s1 [Example 1, N-[5-[[(2S,4S)-4-(5-cyanopyrazin-2-yl)oxy-2-methyl-1-piperidyl]methyl]-4-fluoro-thiazol-2-yl]acetamide]
